Test results published in ChEMBL document CHEMBL1123692, “Dopamine autoreceptor agonists: resolution and pharmacological activity of 2,6-diaminotetrahydrobenzothiazole and an aminothiazole analogue of apomorphine” (J Med Chem, 1987).

Tests used:
Rattus norvegicus [1] = experiment: Accumulation of nmol of L-DOPA/g of tissue weight corpus striatum elicited by injection of GBL and NSD at a dose of 10 mg/kg; assay type: functional
Rattus norvegicus [2] = experiment: Utilization of DA/g by total brain without cerebellum following alpha-MT (250 mg/kg) at a dose of 10 mg/kg; assay type: functional
Rattus norvegicus [3] = experiment: Percent difference of DA utilization when compared to saline at a dose of 10 mg/kg; assay type: functional
Rattus norvegicus [4] = experiment: Percent difference of L-DOPA accumulation when compared to saline at a dose of 10 mg/kg; assay type: functional
Rattus norvegicus [5] = experiment: Percent difference of L-DOPA accumulation when compared to saline at a dose of 1.0 mg/kg

SMILES | Accumulation (Rattus norvegicus [1]) | DA utilization (Rattus norvegicus [2]) | Difference (Rattus norvegicus [3]) | Difference (Rattus norvegicus [4]) | Accumulation (Rattus norvegicus [1]; 10 mg/kg) | DA utilization (Rattus norvegicus [2]; 10 mg/kg) | Difference (Rattus norvegicus [3]; 10 mg/kg) | Difference (Rattus norvegicus [4]; 10 mg/kg) | Difference (Rattus norvegicus [5])
CCCN1CCCC2Cc3nc(N)sc3CC21 (stereo unspecified) | 9.1 | 4863 | 75% | -62% |  |  |  |  | 
CN1CCc2cccc3c2C1Cc1sc(N)nc1-3.Cl.Cl (single isomer, unassigned; (-)) |  |  |  |  | 20.1 | 3917 | 41% | -16% | 
Cl.Cl.Nc1nc2c(s1)C[C@H](N)CC2 |  | 2441 | -12% |  |  |  |  |  | 
CN1CCc2cccc3c2C1Cc1sc(N)nc1-3 (racemic) | 14.9 | 3721 | 34% | -38% |  |  |  |  | 
CN1CCc2cccc3c2C1Cc1sc(N)nc1-3.Cl.Cl (single isomer, unassigned; (+)) |  |  |  |  | 24.4 | 2441 | -12% | 1% | 
CN1CCc2cccc3c2[C@H]1Cc1ccc(O)c(O)c1-3 [APOMORPHINE] | 8.9 | 4008 | 44% | -63% |  |  |  |  | 
CCCN[C@@H]1CCc2nc(N)sc2C1.Cl.Cl | 19 | 5104 | 84% |  |  |  |  |  | -21%
Cl.Cl.Nc1nc2c(s1)C[C@@H](N)CC2 |  | 2317 | -17% |  |  |  |  |  | 
CCCN[C@H]1CCc2nc(N)sc2C1.Cl.Cl | 11.3 | 6417 |  |  |  |  |  |  | -53%
